Here are results for 17 compounds from patent US20130072468A1, “SUBSTITUTED PIPERAZINES AS CB1 ANTAGONISTS” (priority 2011, published 2013).

The structures appear in SMILES notation. pKi: −log10 of the molar value.

The target in the assay is T1, cannabinoid CB1 (Homo sapiens, UniProt P21554).
T1 construct: purchased
T1 sequence (P21554 whole entry): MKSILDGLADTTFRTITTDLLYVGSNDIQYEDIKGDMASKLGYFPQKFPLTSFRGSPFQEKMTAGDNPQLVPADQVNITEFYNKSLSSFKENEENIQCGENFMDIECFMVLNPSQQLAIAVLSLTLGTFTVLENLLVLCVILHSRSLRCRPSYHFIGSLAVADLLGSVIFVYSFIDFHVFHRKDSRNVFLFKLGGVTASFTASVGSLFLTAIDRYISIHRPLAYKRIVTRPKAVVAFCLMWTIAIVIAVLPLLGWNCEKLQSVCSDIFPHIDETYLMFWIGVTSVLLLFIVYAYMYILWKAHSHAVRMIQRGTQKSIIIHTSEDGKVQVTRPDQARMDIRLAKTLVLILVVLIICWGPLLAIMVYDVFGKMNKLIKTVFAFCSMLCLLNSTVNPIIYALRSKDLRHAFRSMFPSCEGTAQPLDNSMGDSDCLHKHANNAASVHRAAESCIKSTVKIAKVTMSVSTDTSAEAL
Kind of assay: Competition binding assay for cannabinoid CB1 affinity (3H-CP55,940 displacement, membranes). The conditions noted are these: competition binding vs 0.5 nM 3H-CP55,940; Ki by Cheng-Prusoff; read-out: Ki values in the assay described above. On the procedure: Method for Evaluating Cannabinoid CB1 and CB affinity
Competition binding assays for cannabinoid CB1 and CB2 affinity were performed by incubating commercially purchased membranes prepared from cells expressing each receptor subtype (8 μg pro) with 0.5 nM ^3H-CP55,940, a non-selective cannabinoid agonist, along with concentrations of drug ranging from 0.0001-3 μM in Buffer A (5 mM MgCl2, 2.5 mM EDTA and […] BSA). Non-specific binding was defined in the presence of 10 μM CP55,940. For saturation studies, concentrations of ^3H-CP55,940 ranging from 0.1-5 nM were incubated with membranes in the presence and absence of 10 μM CP55,940. Assays were terminated after incubation for 1½ hours by rapid filtration onto 0.3 polyethylenamine treated GF/C filterplates using a BRANDEL cell harvester. The plates were dried and MICROSCINT scintillation cocktail was added, after which the bound radioactivity was quantified using a TOPCOUNT scintillation counter.
The dissociation constant (Kd) of ^3H-CP55,940 at the CB1 and CB2 receptor were determined by plotting specific binding at each concentration of radioligand, and analysis by non-linear regression. For competition studies, the concentration of each drug that inhibited 50 percent of ^3H-CP55,940 binding (IC50) was determined by non-linear regression analysis of the radioligand displacement curves. Affinity constants (Ki) were calculated using the equation derived by Cheng and Prusoff (1973), defined as: IC50/1+[conc. ligand/Kd].
Regarding `CC(O)(CN1CCN(c2ccc(Cl)cc2Cl)[C@H](c2ccc(Cl)cc2)C1)C(=O)O` (some centres unmarked) [Example 877b], the pKi (in general, the Ki on a negative log10 scale, so that one unit is a factor of ten) was at most 6.05. Under `COc1ccc(N2CCNC[C@H]2c2ccc(Cl)cc2)c(F)c1` [Example 822] stands at most 6.05; under `O=C1CN(Cc2ccccc2)C[C@@H](c2ccc(Cl)cc2)N1c1ccc(O)cc1` [Example 831], at most 6.05. In the case of `CC(C)(C)OC(=O)N[C@@H](C(=O)N1CCN(c2ccc(Cl)cc2Cl)[C@H](c2ccc(Cl)cc2)C1)c1ccc(Cl)cc1` [Example 1167a], the pKi is at most 6.05. For `N#Cc1ccc(N2CCNC[C@H]2c2ccc(Cl)cc2)nc1` [Example 826b], the pKi was at most 6.05. For the compound `N#Cc1cccnc1N1CCNC[C@H]1c1ccc(Cl)cc1` [Example 826d], the pKi was at most 6.05. Take `COc1ccc(N2CCNC[C@H]2c2ccc(F)cc2)c(C#N)c1` [Example 826e]: the pKi was at most 6.05.

As to `CC(C)(C)CCN1CCC(C(C)(O)CN2CCN(c3ccc(Cl)cc3Cl)[C@H](c3ccc(Cl)cc3)C2)CC1` (some centres unmarked) [Example 1089], the pKi is around 6.06. Consider `C[C@@](O)(CN1CCN(c2ccc(C#N)cc2Cl)[C@H](c2ccc(Cl)cc2)C1)c1cc(F)cc(F)c1` [Example 949], for which the pKi is 7.00 to 9.70. With `C[C@@](O)(CN1CCN(c2ccc(Cl)cc2Cl)[C@H](c2ccc(Cl)cc2)C1)c1ccc(Cl)cc1` [Example 930], the pKi was 7.00 to 9.70. Under `O=C1CN(Cc2ccccc2)C[C@@H](c2ccc(Cl)cc2)N1c1ccc(O)cc1Cl` [Example 830] stands at most 6.05; under `COC(=O)c1ccc(N2CCN(Cc3ccccc3)C[C@H]2c2ccc(Cl)cc2)cc1` [Example 817], at most 6.05.

As for `C[C@@](O)(CN1CCN(c2ccc(Cl)cc2Cl)[C@H](c2ccc(Cl)cc2)C1)c1ccc(N)nc1` [Example 1037], the pKi is 7.00 to 9.70. For `OCc1ccc(N2CCN(Cc3ccccc3)C[C@H]2c2ccc(Cl)cc2)cc1` [Example 824], the pKi is at most 6.05. Regarding `COc1ccc(N2CCN(Cc3ccccc3)C[C@H]2c2ccc(Cl)cc2)c(Cl)c1` [Example 807], the pKi was at most 6.05. As for `CC(O)(CN1CCN(c2ccc(Cl)cc2Cl)[C@H](c2ccc(Cl)cc2)C1)C1CCN(S(=O)(=O)C2CC2)CC1` (some centres unmarked) [Example 1091], the pKi was 7.00 to 9.70. `COc1cccc([C@@H]2CNCCN2c2ccc(C#N)cc2Cl)c1` [Example 813b]: the negative logarithm of the Ki (pKi) was at most 6.05.
